# Experimental data taken from ChEMBL document CHEMBL1177825, “Subtype-selectivity of metal-dependent methionine aminopeptidase inhibitors” (Bioorg Med Chem Lett, 2010).
# Calls of active or inactive are those of the source. The rule behind the calls is not given here.
# Columns and labels:
# Staphylococcus aureus = assay: Inhibition of Staphylococcus aureus MetAP at 25 uM
# [1] = Inhibition of Staphylococcus aureus MetAP
# [2] = Inhibition of Escherichia coli MetAP
# Escherichia coli = assay: Inhibition of Escherichia coli MetAP at 25 uM
# [3] = target: Methionine aminopeptidase 1 (Homo sapiens, UniProt P53582); assay: Inhibition of human MetAP1
# [4] = target: Methionine aminopeptidase 2 (Homo sapiens, UniProt P50579); assay: Inhibition of human MetAP2 expressed in baculovirus infected Sf9 cells
# Chain of Methionine aminopeptidase 2 (P50579 whole entry): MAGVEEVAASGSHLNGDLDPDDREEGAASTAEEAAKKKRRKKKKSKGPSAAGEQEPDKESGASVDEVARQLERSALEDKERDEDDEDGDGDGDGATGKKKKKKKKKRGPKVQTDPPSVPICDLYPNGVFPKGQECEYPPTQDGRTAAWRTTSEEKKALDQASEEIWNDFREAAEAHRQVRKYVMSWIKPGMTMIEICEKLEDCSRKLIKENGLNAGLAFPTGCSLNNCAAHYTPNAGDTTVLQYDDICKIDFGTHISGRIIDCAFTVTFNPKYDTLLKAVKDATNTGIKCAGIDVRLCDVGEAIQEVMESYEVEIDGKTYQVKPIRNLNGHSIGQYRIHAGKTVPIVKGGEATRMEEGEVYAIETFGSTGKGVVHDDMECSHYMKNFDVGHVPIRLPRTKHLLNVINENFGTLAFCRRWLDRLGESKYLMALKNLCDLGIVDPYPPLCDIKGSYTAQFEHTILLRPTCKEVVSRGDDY
Structure (SMILES),inhibition (Staphylococcus aureus),IC50 [1],IC50 [2],inhibition (Escherichia coli),IC50 [3],IC50 [4]
Nc1ccc2[nH]c(-c3cscn3)nc2c1,92%,2.3 µM,3.4 µM,–,–,–
Cc1ccc(S(=O)(=O)Oc2cccc3cccnc23)cc1,inactive,–,–,inactive,–,–
O=C(Nc1nccs1)c1ccccn1,58%,21.2 µM,0.06 µM,100%,8.1 µM,25.8 µM
O=C(Nc1cccc2cccnc12)c1ccccc1,inactive,–,–,inactive,–,–
CC(C)(C)c1ccc2[nH]c(-c3cscn3)nc2c1,30.2%,41.7 µM,3.9 µM,–,–,–
c1cnc2nc(-c3nccs3)[nH]c2c1,21%,–,0.08 µM,–,–,–
Cc1cc2nc(-c3ccccn3)[nH]c2cc1C,87%,17.9 µM,2.4 µM,–,–,–
c1ccc(Cn2c(-c3ccccn3)nc3ccccc32)cc1,inactive,–,0.99 µM,–,–,–
COC(=O)Nc1nc2cc(Sc3ccccc3)ccc2[nH]1,12.5%,–,–,inactive,–,–
Cc1ccc2[nH]c(-c3ccccn3)nc2c1,–,–,–,–,–,7.7 µM
Cc1cc(NS(=O)(=O)c2ccccn2)no1,inactive,–,–,21%,–,–
c1ccc(-c2nc3ccc[nH]c-3n2)nc1,76%,18.8 µM,0.11 µM,–,–,–
CCCSc1ccc2[nH]c(NC(=O)OC)nc2c1,10.5%,–,–,35%,–,–
c1ccc(-c2nc3cc[nH]cc-3n2)nc1,55%,22.8 µM,0.55 µM,–,–,–
c1cc2nc(-c3cscn3)[nH]c2cn1,–,–,–,–,19 µM,–
c1ccc(-c2nc3c[nH]cnc-3n2)nc1,18%,–,0.38 µM,–,–,–
c1ccc2[nH]c(-c3cnccn3)nc2c1,inactive,–,4.6 µM,–,–,–
O=C(Oc1cccc2cccnc12)c1ccccc1 [BENZOXIQUINE],10%,–,–,32%,–,34.8 µM
O=S(=O)(Nc1cccc2cccnc12)c1ccccc1,47%,22.9 µM,11 µM,93%,–,39.8 µM
Cc1ccc2nc(-c3ccccn3)[nH]c2c1,68%,19.4 µM,2.1 µM,–,–,–
c1coc(-c2nc3ccccc3[nH]2)c1,10%,–,–,26%,–,–
N#Cc1ccc2[nH]c(-c3ccccn3)nc2c1,29%,33 µM,0.43 µM,–,–,–
CC(C)(C)c1ccc2[nH]c(-c3ccccn3)nc2c1,40.9%,38.9 µM,2.6 µM,–,–,–
Cc1cc2nc(-c3cscn3)[nH]c2cc1C,17%,–,10 µM,–,–,–
Oc1cccc2cccnc12 [OXYQUINOLINE],65%,18.3 µM,0.77 µM,95%,21.5 µM,5.6 µM

Structure (SMILES),inhibition (Staphylococcus aureus),IC50 [1],IC50 [2],inhibition (Escherichia coli),IC50 [3],IC50 [4]
O=S(=O)(Nc1nccs1)c1ccccn1,–,–,–,23%,–,–
c1ccc2[nH]c(Nc3nccs3)nc2c1,52%,22.4 µM,0.54 µM,–,–,–
Nc1ccc2[nH]c(-c3ccccn3)nc2c1,92%,4.9 µM,0.97 µM,–,–,–
c1ccc(-c2nc3ccccc3[nH]2)nc1,56%,19.9 µM,0.57 µM,–,28.4 µM,13.3 µM
c1csc(-c2nc3ccccc3[nH]2)c1,inactive,–,–,inactive,–,–
COC(=O)Nc1nc2ccccc2[nH]1,inactive,–,–,34%,–,–
N/C(S)=N/c1nc2ccccc2[nH]1,31%,35.9 µM,9 µM,–,–,–
Cc1cc(NC(=O)c2ccccn2)no1,20%,–,2.8 µM,80%,–,–
c1cncc(-c2nc3ccccc3[nH]2)c1,20%,–,–,inactive,–,–
COC(=O)Nc1nc2cc(C(=O)c3ccccc3)ccc2[nH]1,inactive,–,–,47%,–,–
c1ccc2[nH]c(-c3cscn3)nc2c1 [THIABENDAZOLE],28%,–,0.47 µM,86.3%,47.8 µM,44.7 µM
O=C(Nc1nccs1)c1ccc([N+](=O)[O-])cc1,inactive,–,–,inactive,–,–
Oc1ccccc1-c1nc2ccccc2[nH]1,12%,–,–,66%,–,–
O=[N+]([O-])c1ccc2[nH]c(-c3ccccn3)nc2c1,inactive,–,0.16 µM,–,28.8 µM,–
c1ccc(-c2nc3ncc[nH]c-3n2)nc1,51%,22 µM,0.24 µM,–,–,–
Nc1ccc2nc(-c3ccccn3)[nH]c2c1,–,–,–,–,–,9.3 µM
c1cc2[nH]c(-c3cscn3)nc2cn1,32%,45.5 µM,1.7 µM,–,–,–
O=S(=O)(Oc1cccc2cccnc12)c1ccccc1,62%,16 µM,–,inactive,–,–
Fc1ccc2nc(-c3ccccn3)[nH]c2c1,31%,40.1 µM,1.5 µM,–,–,–
O=S(=O)(Oc1cccc2cccnc12)c1ccccn1,inactive,–,–,38%,–,–
Clc1ccc2nc(-c3ccccn3)[nH]c2c1,16%,–,1.7 µM,–,–,–
Oc1cccnc1-c1nc2ccccc2[nH]1,97%,4.4 µM,0.78 µM,–,–,–
Oc1cccc(-c2nc3ccccc3[nH]2)n1,47%,29.2 µM,1.3 µM,–,–,–
Clc1ccc2[nH]c(-c3cscn3)nc2c1,15%,–,5.2 µM,–,–,–
O=[N+]([O-])c1ccc2nc(-c3cscn3)[nH]c2c1,–,–,–,–,48.5 µM,–
